Activity calls are given as the source filed them. The calls are words filed in the database; no cut-off is given here.
Experiments:
DLD-1 [1] = experiment: Antimigratory activity against human DLD1 cells overexpressing PRL3 at 10 ug/ml after 20 hrs by crystal violet staining-based light microscopic analysis relative to control; type: functional; details: DLD-1, 20 h
[2] = target: T1, Tyrosine-protein phosphatase non-receptor type 11 (Homo sapiens) (UniProt Q06124); experiment: Inhibition of SHP2 (unknown origin) using DiFMUP as substrate at 5 uM relative to control
T1 sequence (whole entry): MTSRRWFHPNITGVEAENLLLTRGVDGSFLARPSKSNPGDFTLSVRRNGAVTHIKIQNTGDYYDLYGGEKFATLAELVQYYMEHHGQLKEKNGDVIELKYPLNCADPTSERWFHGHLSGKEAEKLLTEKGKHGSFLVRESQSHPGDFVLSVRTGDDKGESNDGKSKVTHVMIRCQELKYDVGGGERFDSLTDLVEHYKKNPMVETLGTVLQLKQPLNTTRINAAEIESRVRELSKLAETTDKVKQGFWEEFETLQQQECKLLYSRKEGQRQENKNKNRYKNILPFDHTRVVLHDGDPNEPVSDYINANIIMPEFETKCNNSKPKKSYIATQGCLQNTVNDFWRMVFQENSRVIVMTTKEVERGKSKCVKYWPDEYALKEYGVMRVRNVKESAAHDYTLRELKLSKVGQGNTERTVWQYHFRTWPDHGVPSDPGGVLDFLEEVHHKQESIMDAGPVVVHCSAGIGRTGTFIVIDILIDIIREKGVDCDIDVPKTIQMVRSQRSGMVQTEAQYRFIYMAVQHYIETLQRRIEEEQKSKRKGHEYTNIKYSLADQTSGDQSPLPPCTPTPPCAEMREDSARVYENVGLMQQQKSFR

A375P = experiment: Antimigratory activity against human A375P cells overexpressing PRL3 at 10 to 20 uM after 20 hrs by crystal violet staining-based light microscopic analysis; type: functional, cell-based
DLD-1 [3] = experiment: Cytotoxicity against human DLD1 cells overexpressing PRL3 assessed as growth inhibition at 50 uM after 24 hrs by WST-1 assay; type: cell-based; details: dld-1, 24 h
MDA-MB-231 = experiment: Antimigratory activity against human MDA-MB-231 cells expressing low level of PRL3 at 10 to 20 uM after 20 hrs by crystal violet staining-based light microscopic analysis; type: functional, cell-based
DLD-1 [4] = experiment: Antimigratory activity against human DLD1 cells overexpressing PRL3 at 10 uM after 20 hrs by crystal violet staining-based light microscopic analysis; type: functional, cell-based
DLD-1 [5] = experiment: Antimigratory activity against human DLD1 cells overexpressing PRL3 at 20 uM after 20 hrs by crystal violet staining-based light microscopic analysis relative to control; type: functional; details: DLD-1, 20 h
[6] = target: Dual specificity protein phosphatase 3 (Homo sapiens) (UniProt P51452); experiment: Inhibition of VHR (unknown origin) using DiFMUP as substrate at 5 uM relative to control
Sequence of Dual specificity protein phosphatase 3 (Homo sapiens) (P51452 whole entry, looked up): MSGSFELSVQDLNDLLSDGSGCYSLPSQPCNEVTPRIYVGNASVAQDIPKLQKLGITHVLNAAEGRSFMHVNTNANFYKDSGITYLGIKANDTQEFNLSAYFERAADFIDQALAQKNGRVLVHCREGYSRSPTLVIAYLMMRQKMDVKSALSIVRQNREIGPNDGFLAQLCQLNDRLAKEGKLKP

[7] = target: Tyrosine-protein phosphatase YopH (Yersinia enterocolitica) (UniProt P15273); experiment: Inhibition of yopH (unknown origin) using DiFMUP as substrate at 5 uM relative to control
[8] = target: T2, Low molecular weight phosphotyrosine protein phosphatase (Homo sapiens) (UniProt P24666); experiment: Inhibition of LMPTPA (unknown origin) using DiFMUP as substrate at 5 uM relative to control
T2 sequence (whole entry): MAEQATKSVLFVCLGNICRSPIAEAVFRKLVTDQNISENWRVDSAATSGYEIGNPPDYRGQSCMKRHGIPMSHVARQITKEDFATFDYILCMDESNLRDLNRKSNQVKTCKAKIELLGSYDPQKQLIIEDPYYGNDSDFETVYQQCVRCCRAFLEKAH

Homo sapiens = organism: Homo sapiens; experiment: Inhibition of PP2A (unknown origin) using DiFMUP as substrate at 5 uM relative to control
[9] = target: T3, Dual specificity protein phosphatase 22 (Homo sapiens) (UniProt Q9NRW4); experiment: Inhibition of DUSP22 (unknown origin) using DiFMUP as substrate at 5 uM relative to control
T3 sequence (whole entry): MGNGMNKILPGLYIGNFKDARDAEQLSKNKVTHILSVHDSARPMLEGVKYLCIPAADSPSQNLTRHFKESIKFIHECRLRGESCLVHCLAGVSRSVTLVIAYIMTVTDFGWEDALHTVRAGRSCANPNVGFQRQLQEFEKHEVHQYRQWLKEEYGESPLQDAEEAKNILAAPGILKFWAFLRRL

ASPC1 = experiment: Antimigratory activity against human AsPC1 cells overexpressing PRL3 at 10 to 20 uM after 20 hrs by crystal violet staining-based light microscopic analysis; type: functional, cell-based
[10] = target: T4, Dual specificity protein phosphatase 10 (Homo sapiens) (UniProt Q9Y6W6); experiment: Inhibition of MKP5 (unknown origin) using DiFMUP as substrate at 5 uM relative to control
T4 sequence (whole entry): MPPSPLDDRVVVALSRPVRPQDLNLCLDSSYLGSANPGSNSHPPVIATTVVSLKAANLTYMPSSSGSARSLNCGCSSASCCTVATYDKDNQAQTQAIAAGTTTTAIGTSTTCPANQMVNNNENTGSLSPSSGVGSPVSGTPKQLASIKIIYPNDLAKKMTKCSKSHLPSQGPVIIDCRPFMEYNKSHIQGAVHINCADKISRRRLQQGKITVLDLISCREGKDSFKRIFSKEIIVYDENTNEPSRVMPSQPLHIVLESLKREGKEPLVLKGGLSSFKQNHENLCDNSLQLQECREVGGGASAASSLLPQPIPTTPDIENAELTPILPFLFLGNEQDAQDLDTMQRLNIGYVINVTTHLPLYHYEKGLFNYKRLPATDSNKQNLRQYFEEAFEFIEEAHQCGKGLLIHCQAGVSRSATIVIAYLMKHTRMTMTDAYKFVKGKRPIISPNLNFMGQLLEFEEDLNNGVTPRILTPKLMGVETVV

[11] = target: T5, Tyrosine-protein phosphatase non-receptor type 1 (Homo sapiens) (UniProt P18031); experiment: Inhibition of PTP1B (unknown origin) using DiFMUP as substrate at 5 uM relative to control
T5 sequence (whole entry): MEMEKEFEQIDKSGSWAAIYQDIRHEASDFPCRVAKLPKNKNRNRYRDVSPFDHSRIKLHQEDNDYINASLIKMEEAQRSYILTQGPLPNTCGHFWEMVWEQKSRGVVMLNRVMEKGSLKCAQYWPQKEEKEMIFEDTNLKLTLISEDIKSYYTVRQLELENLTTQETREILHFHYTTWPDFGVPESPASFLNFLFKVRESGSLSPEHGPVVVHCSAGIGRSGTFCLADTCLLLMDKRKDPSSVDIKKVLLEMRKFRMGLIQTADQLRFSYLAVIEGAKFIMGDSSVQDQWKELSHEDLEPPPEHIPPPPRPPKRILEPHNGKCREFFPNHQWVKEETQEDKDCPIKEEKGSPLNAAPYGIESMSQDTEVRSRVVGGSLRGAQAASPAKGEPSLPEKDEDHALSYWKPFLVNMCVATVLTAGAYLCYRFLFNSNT

DU-145 = experiment: Antimigratory activity against human DU145 cells expressing low level of PRL3 at 10 to 20 uM after 20 hrs by crystal violet staining-based light microscopic analysis; type: functional, cell-based

Structure (SMILES)	inhibition at 10 µg/mL (DLD-1 [1])	inhibition [2]	Activity (A375P)	Activity (DLD-1 [3])	Activity (MDA-MB-231)	Activity (DLD-1 [4])	inhibition at 20 µM (DLD-1 [5])	inhibition [6]	inhibition [7]	inhibition [8]	inhibition (Homo sapiens)	inhibition [9]	Activity (ASPC1)	inhibition [10]	inhibition [11]	Activity (DU-145)
COc1ccccc1COc1ccccc1/C=C/C=C1\SC(=S)NC1=O	98%	18%	Active	Non-toxic	inactive	Active	> 90%	3%	9%	6%	29%	10%	Active	1%	8%	inactive
O=C1NC(=S)S/C1=C\c1cc(Br)ccc1OCc1ccccc1Br	95%	27%	Active	Non-toxic	inactive	Active	> 90%	7%	14%	0%	0%	30%	Active	5%	11%	inactive
